# Entries after “also recorded” stand apart in the source; their conditions may differ. Read-outs that look alike come from different tables or passages of the source.
# Columns and labels:
# [1] = TH-2-31, TH-4-55-2, TH-4-67 PK Study (IP, IV, PO; plasma and brain); type: in vivo, C57BL/6 mice; conditions: for Cmax brain (nM) / concentration in brain following IV administration (rapid accumulation) / half-life / concentration at 24 h / Cmax: 20 mg/kg; for half-life / concentration at 24 h / Cmax: both sexes, C57BL/6, mouse; for half-life: read-out: in vivo brain t1/2; for brain penetrance / accumulation in brain over plasma, in words: mouse, in vivo; for stability / accumulation in plasma in vivo, in words: up to 24 hours
# Protocol: C57BL/6 mice (8-weeks of age and ˜25 g weight) were weighed before injection and divided into groups of two male and female mice per cage. Compound was dissolved in 5% DMSO/95% of 1:1 [(65% v/v of 25% w/v 2-hydroxypropyl-3-cyclodextrin (Cayman Chemical) dissolved in 20% EtOH, 30% v/v Poly(ethylene glycol)-400 (Sigma Aldrich 202398), 5% v/v Tween 80 (Fluka 59924)):MilliQ water] to create a 2 mg/mL solution. The same formulation without compound was used as a vehicle control. The solution was sterilized using a […] Steriflip filter unit (Thomas Scientific 1189Q46). Mice were dosed IP, IV, and PO routes of administration and euthanized by CO2 asphyxiation for 3 min at 0, 1, 2, 4, 8, and 24 h after administration. To ensure that the vehicle was well-tolerated 4 mice were treated with vehicle and euthanized 4 h after administration. ˜0.5 mL of blood was collected via cardiac puncture and immediately put in K3 EDTA microtubes ([…] 41.1504.105) and kept on ice. Organs were harvested, placed in Eppendorf tubes, and frozen on dry ice. Blood samples were centrifuged for 10 min at 2,100×g at 4° C., then plasma was transferred to a clean tube and frozen on dry ice. Organ samples were weighed and placed in hard tissue homogenizing tubes (Omni International 19-628) and a volume of DEPC-treated nuclease-free water (IBI Scientific IB42200) was added to make a 500 mg/mL solution and homogenized using the Omni Bead Ruptor 4 at speed 5 for 30 seconds. Compound was extracted from plasma or organ homogenate by adding 900 μL acetonitrile to 100 μL plasma or organ homogenate. Samples were mixed by vortexing and allowed to extract overnight at 4° C. prior to mixing for at least 5 min by rotating at room temperature, vortexing, and sonicating for at least 30 second prior to centrifugation for 10 min at 4,000×g and 4° C. The supernatant was then transferred to a glass vial and analyzed by UPLC-MS described below. The concentration of each analog was determined against a standard curve with a nonlinear fit and the data plot in GraphPad Prism 9 and fit with a one phase decay.
# Samples from animal studies were analyzed via UPLC-MS using a Waters Xevo G2-Xs QTof Mass spectrometer equipped with an Acquity UPLC. Chromatographic separation was carried out at 50° C. on a Acquity UPLC BEH C18 column (1.7 μm, 2.1 mm×50 mm, pore size 130 Å) over a 4.5 min gradient elution. The flowrate was held constant at 0.8 mL/min. Mobile phase A consisted of water and mobile phase B consisted of ACN both containing 0.1% formic acid. After injection, the gradient was held at 50% A for 0.25 min. For the next minute, the gradient was ramped in a linear fashion to 100% B and held at this composition for 0.5 min. The eluent composition returned to the initial condition in 0.01 min and the column was re-equilibrated for 2.74 min before the next injection. Injection volumes were 0.5 μL (TH-2-31 40 mg/kg) and 1 μL for all other conditions. The Xevo G2-Xs was operated in positive electrospray ionization (ESI) mode. A capillary voltage and sampling cone voltage of 0.5 kV and 30 V were used. The source and desolvation temperatures were kept at 120° C. and […], respectively. Nitrogen was used as the desolvation gas with a flowrate of 750 L/hr. The protonated molecular ion of leucine encephalin ([M+H]^+, m/z 556.2771 was used as a lock mass for mass accuracy and reproducibility. Leucine enkephalin was introduced to the lock mass at a concentration of 2 ng/mL (50% ACN containing 0.1% formic acid), and a flow rate of […]. To avoid signal saturation, the signal transmission was attenuated to <10%, based off the signal intensity of the highest standard concentration for the duration of the run. The data was collected over the mass range m/z 50 to 1200 Da with an acquisition time of 0.1 seconds per scan. The retention time for each analog is detailed below. […]
# [2] = test system: modified bacteria sensitive to mutagenic agents; type: cell-based; conditions: […] to 82 μM, 3 days
# Protocol: The AMES test uses modified bacteria sensitive to mutagenic agents to assess a compound's ability to cause direct DNA mutations. If the tested drug can induce reverse mutational events, it will cause bacteria to revert back to a prototrophic state and grow on media lacking selected nutrients. We tested TH-2-31, TH-4-55-2, and TH-4-67 using the AMES test. CFI-4082 was also included in the test for comparison. Bacteria strains were incubated under exposure to different concentrations of tested compounds for 3 days and collected 144 data points of mutation status at each concentration. The concentration ranged from 5.1 μM to 82 μM, which is the highest local organ concentration of our compounds in the above mice study (FIG. 12).
# The Ames test uses modified bacteria sensitive to mutagenic agents to assess a compound's ability to cause direct DNA mutations. If a tested compound can induce revert mutational events, it will cause bacteria to revert back to a prototrophic state and grow on media lacking selected nutrients. We evaluated TH-2-31, TH-4-55-2, and TH-4-67 in the Ames test. We also included PHB4082 in this test. Bacteria strains were incubated under exposure to different concentrations of tested compounds for three days and 144 data points were collected on mutation status across a concentration range from 5.1 μM to 82 μM, which was the highest local organ concentration observed in previous mouse studies.
# [3] = plasma, all routes of administration, read-out: concentration in plasma 24 hours after administration
SMILES,Cmax brain/ IC50 ([1]; IP),Cmax brain (nM) ([1]; IP),Cmax brain/ IC50 ([1]; IV),Cmax brain (nM) ([1]; IV),concentration in brain following IV administration (rapid accumulation) ([1]; IV),Cmax brain/ IC50 ([1]; PO),Cmax brain (nM) ([1]; PO),"half-life ([1]; brain, ip, R.O.A. IP) [h]","half-life ([1]; brain, iv, R.O.A. IV) [h]","half-life ([1]; brain, po, R.O.A. PO) [h]","Cmax ([1]; plasma, ip) [µM]","Cmax ([1]; plasma, iv) [µM]","Cmax ([1]; plasma, po) [µM]","concentration at 24 h [1, 3] [µM]","brain penetrance / accumulation in brain over plasma, in words [1]","stability / accumulation in plasma in vivo, in words [1]",mutagenic potential (Ames test result) [2],other results
"CCC(CC)Nc1cc(-c2nc(C)no2)cnc1NC1CCCCC1 [TH-4-55-2, N^2-cyclohexyl-5-(3-methyl-1,2,4-oxadiazol-5-yl)-N^3-(pentan-3-yl)pyridine-2,3-diamine]","1,765","3,936 nM","35,567","79,314 nM",> 75 µM,632,"1,410 nM",> 8,< 1,> 24,63.8,32.1,2.93,> 0.8,preferentially accumulate in brain over plasma for all time-points following IV administration,accumulated the most,none of the compounds had mutagenic potential,"time present in plasma at μM concentrations ([1]; all routes of administration): up to 8 hours; concentration at 24 h ([1]; brain, other: IP and PO, IP and PO administration, read-out: concentration in brain 24 hours post administration): > 1 µM"
"Cc1noc(-c2cnc(NC3CCCC3)c(NC3CCCC3)c2)n1 [TH-4-67, N^2,N^3-dicyclopentyl-5-(3-methyl-1,2,4-oxadiazol-5-yl)pyridine-2,3-diamine]","1,389","2,916 nM","24,820","52,121 nM",> 50 µM,740,"1,554 nM",,< 1,,82.1,40.6,1.77,< 0.025,,accumulated the least; also recorded: the least stable,none of the compounds had mutagenic potential,"time present in plasma at μM concentrations ([1]; IP administration): up to 2 hours; time present in plasma at μM concentrations ([1]; PO and IV administration): up to 1 hour; concentration at 24 h ([1]; brain, all routes of administration, read-out: concentration in brain 24 hours post administration): < 0.2 µM"
"Cc1noc(-c2cnc(NC3CCCCC3)c(NC3CCCCC3)c2)n1 [TH-2-31, N^2,N^3-dicyclohexyl-5-(3-methyl-1,2,4-oxadiazol-5-yl)pyridine-2,3-diamine]",633,"2,133 nM","99,335","334,759 nM",greater than 300 μM,353,"1,190 nM",> 8,< 1,> 24,50.9,25.8,2.24,> 0.5,preferentially accumulate in brain over plasma for all time-points following IV administration,,none of the compounds had mutagenic potential,"concentration at 24 h ([1]; brain, iv, read-out: concentration in brain 24 hours after administration): 10 µM"
